Test results reported in US8236951B2, “Thioxanthine derivatives as myeloperoxidase inhibitors” (AstraZeneca AB, priority 2002, dated 2012).

biological target: T1, human MPO (Homo sapiens, UniProt P05164); experiment: MPO inhibition screen (TMB oxidation, absorbance at about 650 nM); format: biochemical; settings: human MPO 2.5 nM, H2O2 100 μM, assay buffer pH 6.5, room temperature
T1 sequence (P05164 49-745): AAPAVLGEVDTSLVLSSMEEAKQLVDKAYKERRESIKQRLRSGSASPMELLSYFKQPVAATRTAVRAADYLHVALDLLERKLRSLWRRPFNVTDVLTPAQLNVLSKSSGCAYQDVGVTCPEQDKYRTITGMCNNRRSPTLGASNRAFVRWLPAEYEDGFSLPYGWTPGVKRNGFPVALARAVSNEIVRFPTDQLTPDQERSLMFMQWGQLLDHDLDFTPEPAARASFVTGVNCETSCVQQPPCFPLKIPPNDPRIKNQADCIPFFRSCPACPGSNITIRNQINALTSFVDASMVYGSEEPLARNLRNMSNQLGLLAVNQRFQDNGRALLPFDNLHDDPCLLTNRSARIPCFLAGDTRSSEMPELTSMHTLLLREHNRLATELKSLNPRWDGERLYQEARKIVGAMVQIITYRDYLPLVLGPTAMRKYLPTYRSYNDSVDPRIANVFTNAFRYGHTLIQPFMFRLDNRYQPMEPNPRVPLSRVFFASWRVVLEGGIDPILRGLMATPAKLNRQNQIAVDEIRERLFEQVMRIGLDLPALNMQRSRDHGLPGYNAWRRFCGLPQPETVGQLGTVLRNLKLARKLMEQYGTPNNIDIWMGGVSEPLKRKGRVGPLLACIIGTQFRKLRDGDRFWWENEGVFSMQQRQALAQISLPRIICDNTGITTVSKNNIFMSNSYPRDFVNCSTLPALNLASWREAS
Experimental: The pharmacological activity of compounds according to the invention was tested in the following screen:
Assay buffer: 20 mM sodium/potassium phosphate buffer pH 6.5 containing 10 mM taurine and 100 mM NaCl.
Then 50 μl of H202 (final concentration 100 μM), or assay buffer alone as a control, were added for 10 minutes at room temperature. […] IC50 values were then determined using standard procedures.

| SMILES | IC50 |
| --- | --- |
| COCCn1c(=S)[nH]c(=O)c2[nH]cnc21 [Example 15, 3-(2-Methoxy-ethyl)-2-thioxanthine] | 0.44 µM |
| O=c1[nH]c(=S)n(CC2CCCO2)c2nc[nH]c12 (racemic) [Example 14, 3-(2-Tetrahydrofuryl-methyl)-2-thioxanthine] | 0.51 µM |
| O=c1[nH]c(=S)n(Cc2ccco2)c2nc[nH]c12 [Example 17, 3-(2-Furyl-methyl)-2-thioxanthine] | 7.57 µM |
| O=c1[nH]c(=S)n(CCc2ccccc2)c2nc[nH]c12 [Example 20, 3-Phenethyl-2-thioxanthine] | 0.96 µM |
| CC(C)Cn1c(=S)[nH]c(=O)c2[nH]cnc21 [Example 6, 3-Isobutyl-2-thioxanthine] | 0.87 µM |
| O=c1[nH]c(=S)n(CCCN2CCOCC2)c2nc[nH]c12 [Example 16, 3-(3-(1-Morpholinyl)-propyl)-2-thioxanthine] | 2.94 µM |
| COc1ccc(Cn2c(=S)[nH]c(=O)c3[nH]cnc32)cc1 [Example 18, 3-(4-Methoxybenzyl)-2-thioxanthine] | 0.49 µM |
| O=c1[nH]c(=S)n(CC2CCCCC2)c2nc[nH]c12 [Example 10, 3-Cyclohexylmethyl-2-thioxanthine] | 0.53 µM |
